Data as given in patent US12295952B2, “Methods of treating heart failure with cardiac sarcomere activators” (Amgen Inc., priority 2017, dated 2025).
Values joined by “and” are separate entries in the source; they are usually repeats but may differ in a detail not shown here. Identical values can stand only once. “Also recorded” adds a separate entry of the source.

What was measured:
[1] = COSMIC-HF: concentrations of omecamtiv mecarbil in plasma; assay type: in vivo; details: for Maximum Concentration / Predose Concentration: mean (SD)
Experimental: (§1) In this randomized, double-blind study, done at 87 sites in 13 countries, patients with stable, symptomatic chronic heart failure and left ventricular ejection fraction 40% or lower were recruited. Patients were randomly assigned equally, via an interactive web response system, to receive 25 mg oral omecamtiv mecarbil twice daily (fixed-dose group), 25 mg twice daily titrated to 50 mg twice daily guided by pharmacokinetics (pharmacokinetic-titration group), or placebo for 20 weeks. The maximum concentration of omecamtiv mecarbil in plasma (primary endpoint) and changes in cardiac function and ventricular diameters were assessed. This trial is registered with ClinicalTrials.gov, number NCT01786512.
All patients received study treatment or placebo for 20 weeks and were followed up at week 24 after randomization. Patients in the pharmacokinetic-titration group received 25 mg omecamtiv mecarbil twice daily for 2 weeks to reach a steady state. If the trough omecamtiv mecarbil concentration in plasma before the morning dose (predose concentration) at 2 weeks was less than 200 ng/mL, the dose was titrated up to 50 mg twice daily at week 8. If the predose concentration was 200 ng/mL or higher, patients continued taking 25 mg twice daily until the end of the study. To access the pharmacokinetics in this population more rigorously than permitted by just trough sampling, intensive pharmacokinetic sampling was done at the end of weeks 2 and 12, over a period of 8 h on each day.
(§2) The primary endpoint was the maximum concentration of omecamtiv mecarbil at the week 2 and 12 visits and the predose concentration at the week 2, 8, 12, 16, and 20 visits. Secondary endpoints were changes from baseline in systolic ejection time, stroke volume, left ventricular end-systolic and end-diastolic diameters, heart rate, and concentration of NT-proBNP in plasma at week 20. Additional prespecified exploratory echocardiographic endpoints included left ventricular fractional shortening, end-systolic and end-diastolic volumes, and ejection fraction. The clinical events committee adjudicated whether admissions to hospital and deaths and all episodes of myocardial ischaemia or infarction reported by investigators or based on an increase of cardiac troponin I concentration in plasma met the criteria for study endpoints.

patients = details: previous work, similar population of patients; cited from earlier work
[2] = test system: patients with stable, symptomatic chronic heart failure and left ventricular ejection fraction 40% or lower; test: COSMIC-HF: safety variables and adverse events; assay type: in vivo
Experimental: as §1
(§3) Patients attended study clinics at weeks 2 and 8, after which visits were every 4 weeks until week 24. Transthoracic echocardiograms were done at baseline, week 12, and week 20 and analyzed centrally. Blood samples were obtained at specified visits for analysis in the central laboratory.
as §2

[3] = test system: patients with stable, symptomatic chronic heart failure and left ventricular ejection fraction 40% or lower; test: COSMIC-HF: changes in cardiac function, ventricular diameters, heart rate and NT-proBNP; assay type: in vivo, human; details: for NT-proBNP concentration in plasma, difference versus placebo: 4 weeks after omecamtiv mecarbil was stopped
Experimental: as §1, §3, §2
The standard deviations (SDs) for maximum and minimum concentrations of omecamtiv mecarbil in plasma were assumed to be in the range of 40-140 ng/mL.^6-8,11-13 On this basis, it was calculated that 142 patients in the pharmacokinetic-titration group would provide a two-sided 95% CI with half width of 6·6-23·0 ng/mL, assuming that 5% of patients would not have assessable concentrations of omecamtiv mecarbil, which was deemed sufficient for accurate population estimates of these concentrations. Previous work in a similar population of patients had shown that plasma concentrations of omecamtiv mecarbil as low as 100-200 ng/mL had some effect on cardiac function, but that the effect on stroke volume seemed to plateau with concentrations greater than 400 ng/mL, and that plasma concentrations greater than 1200 ng/mL were not clinically tolerated.^7 Thus, it was attempted to achieve a maximum concentration greater than 200 ng/mL and avoid exposures to concentrations greater than 1000 ng/mL. Additionally, with 150 patients in each group and significance set at α=0·05 (two-sided), it was estimated that the statistical power for detecting a treatment effect on the echocardiographic endpoints of systolic ejection time, stroke volume, and left ventricular end-systolic diameter would be more than 90%. Differences between groups for changes in echo cardio graphic variables, heart rate, and NT-proBNP concentrations from baseline were estimated with a repeated measures model fitted separately for each variable and that included the stratification factors of presence or absence of atrial fibrillation or flutter at randomisation, baseline value, treatment group, visit, and treatment group by visit interaction. An unstructured covariance matrix was used to account for the correlation between visits within patients. Least squares mean differences with 95% CIs of the mean relative to placebo are presented unless otherwise indicated. As the study was hypothesis generating, all p values are nominal with no multiplicity adjustment. This study is registered with ClinicalTrials.gov, number NCT01786512.

[4] = Week 2, fixed-dose group (25 mg twice daily)
[5] = Week 12, fixed-dose group (25 mg twice daily)
[6] = Week 12, fixed-dose group (25 mg twice daily), listed as OM
[7] = Week 12, fixed-dose group, of 137 patients with measurements
[8] = Week 12, pharmacokinetic-titration group
[9] = Week 12, pharmacokinetic-titration group, listed as OM
[10] = Week 12, pharmacokinetic-titration group, of 127 patients with measurements
[11] = pharmacokinetic-titration group
[12] = pharmacokinetic-titration OM group (n = 146)
[13] = week 20, pharmacokinetic-titration group

COC(=O)N1CCN(Cc2cccc(NC(=O)Nc3ccc(C)nc3)c2F)CC1 [omecamtiv mecarbil]
Maximum Concentration [1, 4]: 212 (70.4) 33.2% ng/mL
Predose Concentration [1, 4]: 174 (62.2) 35.7% ng/mL
Predose Concentration ([1]; Week 2, pharmacokinetic-titration group (25 mg titrated to 50 mg twice daily)): 179 (68.8) 38.4% ng/mL
Maximum Concentration ([1]; Week 2, pharmacokinetic-titration group): 212 (81.0) 38.2% ng/mL
Predose Concentration ([1]; Week 8, fixed-dose group (25 mg twice daily)): 156 (69.1) 44.2% ng/mL
Predose Concentration ([1]; Week 8, pharmacokinetic-titration group): 161 (74.4) 46.1% ng/mL
Maximum Concentration [1, 5]: 200 (SD 71) ng/mL and 200 (71) ng/mL
Predose Concentration [1, 5]: 165 (SD 68) ng/mL
Maximum Concentration [1, 6]: 200 (71.1) 35.6% ng/mL
Predose Concentration [1, 6]: 165 (67.9) 41.3% ng/mL
Patients with maximum drug concentrations in plasma greater than or equal to 200 ng/mL, % [1, 7]: 46%
Patients with maximum drug concentrations in plasma greater than or equal to 200 ng/mL, number [1, 7]: 63
Maximum Concentration [1, 8]: 318 (129) ng/mL
Predose Concentration [1, 8]: 263 (116) ng/mL
Maximum Concentration [1, 9]: 318 (129) 40.5% ng/mL
Predose Concentration [1, 9]: 263 (116) 44.1% ng/mL
Patients with maximum drug concentrations in plasma greater than or equal to 200 ng/mL, % [1, 10]: 87%
Patients with maximum drug concentrations in plasma greater than or equal to 200 ng/mL, number [1, 10]: 110
Predose Concentration ([1]; Week 16, fixed-dose group (25 mg twice daily)): 155 (69.0) 44.6% ng/mL
Predose Concentration ([1]; Week 16, pharmacokinetic-titration group): 240 (120) 50.0% ng/mL
Predose Concentration ([1]; Week 20, fixed-dose group (25 mg twice daily)): 149 (71.2) 47.8% ng/mL
Predose Concentration ([1]; Week 20, pharmacokinetic-titration group): 239 (118) 49.5% ng/mL
Maximum observed concentration in plasma at any time during the study ([1]; fixed-dose group): 453 ng/mL
Maximum observed concentration in plasma at any time during the study [1, 11]: 831 ng/mL
Patients with a maximum concentration greater than 750 ng/mL [1, 11]: one
Plasma concentrations at which the effect on stroke volume seemed to plateau (patients): greater than 400 ng/mL
Plasma concentrations not clinically tolerated (patients): greater than 1200 ng/mL
Plasma concentrations that had some effect on cardiac function (as low as) (patients): 100 to 200 ng/mL
Frequencies of adverse events, serious adverse events and deaths across groups (versus placebo) ([2]; 20 weeks of treatment): did not differ; also recorded: similar
Adjudicated clinical events: Cardiovascular death, % ([2]; fixed-dose OM group (n = 150)): (1%)
Adjudicated clinical events: Cardiovascular death, number ([2]; fixed-dose OM group (n = 150)): 1
Adjudicated clinical events: Death, % ([2]; fixed-dose OM group (n = 150)): (1%)
Adjudicated clinical events: Death, number ([2]; fixed-dose OM group (n = 150)): 1
Adjudicated clinical events: Hospital admission: Chest paint†, % ([2]; human, in vivo, 20 weeks): (1%)
Adjudicated clinical events: Hospital admission: Chest paint†, number ([2]; human, in vivo, 20 weeks): 2
Adjudicated clinical events: Hospital admission: Myocardial infarction, % ([2]; human, in vivo, 20 weeks): (1%)
Adjudicated clinical events: Hospital admission: Myocardial infarction, number ([2]; human, in vivo, 20 weeks): 1
Adjudicated clinical events: Hospital admission: Unstable angina, % ([2]; human, in vivo, 20 weeks): (1%)
Adjudicated clinical events: Total myocardial infarction**, % ([2]; human, in vivo, 20 weeks): (1%)
Serious adverse events: Acute cardiac failure, % ([2]; human, in vivo, 20 weeks): (2%)
Serious adverse events: Acute cardiac failure, number ([2]; human, in vivo, 20 weeks): 3
Serious adverse events: Cardiac, % ([2]; human, in vivo, 20 weeks): (12%)
Serious adverse events: Congestive cardiac failure, % ([2]; human, in vivo, 20 weeks): (2%)
Serious adverse events: Congestive cardiac failure, number ([2]; human, in vivo, 20 weeks): 3
Serious adverse events: Ventricular tachycardia, % ([2]; human, in vivo, 20 weeks): (1%)
Adjudicated clinical events: Hospital admission: Myocardial infarction, number ([2]; in vivo): 0
Cardiac troponin | concentrations: Change to Week 24 ([2]; in vivo): 0 ng/mL
Share of maximum cardiac troponin I increases from baseline that were less than 0·1 ng/mL ([2]; in vivo): 92%
Share of maximum cardiac troponin I increases from baseline that were less than 0·2 ng/mL ([2]; in vivo): 97%
Time for plasma cardiac troponin I to return to baseline levels after discontinuing ([2]; in vivo): ≤ 4 weeks
Troponin-triggered potential adverse events deemed myocardial ischaemia or myocardial infarction on adjudication ([2]; in vivo): none
Adjudicated clinical events: Cardiovascular death, % [2, 12]: (1%)
Adjudicated clinical events: Cardiovascular death, number [2, 12]: 2
Adjudicated clinical events: Death, % [2, 12]: (2%)
Adjudicated clinical events: Death, number [2, 12]: 3
NT-proBNP concentration in plasma, difference versus placebo ([3]; fixed-dose group): -1327 pg/mL
NT-proBNP concentration in plasma, difference versus placebo [3, 11]: -1306 pg/mL
Systolic ejection times, average increases ([3]; chronic oral administration, across both omecamtiv mecarbil groups): 11 to 25 ms
NT-proBNP concentration in plasma, least square mean difference versus placebo ([3]; week 20, fixed-dose group): -822 pg/mL
Stroke volume, least square mean difference versus placebo ([3]; week 20, fixed-dose group): 5 mL
Systolic ejection time, least square mean difference versus placebo ([3]; week 20, fixed-dose group): 11 ms
Fractional shortening compared with placebo [3, 13]: increases
Left ventricular end-diastolic and end-systolic volumes compared with placebo [3, 13]: reductions
NT-proBNP concentration in plasma, least square mean difference versus placebo [3, 13]: -970 pg/mL
Stroke volume, least square mean difference versus placebo [3, 13]: 3.6 mL and 4 mL
Systolic ejection time, least square mean difference versus placebo [3, 13]: 25 ms
